Test: Peptide stability in fresh culture media (W0, MV, EMM)
Format: physicochemical
Method: Stability of the peptides was analyzed in freshly prepared media and in the supernatant from yeast cultivations in W0 and MV media. For this purpose, the yeast cultivations were initiated in 10 mL media with an optical density (OD600nm) of 1 and were cultivated for 24 h at 30 °C with continuous shaking. Subsequently, 2 mL of the culture was sampled and centrifuged at 5000 × g for 5 min. The resulting supernatant was removed and stored at -20 °C until LC–MS analysis. To study the time-dependent peptide stability, yeast supernatant and fresh culture medium with a volume of 900 µL each were spiked with 100 µL of a synthetic peptide mixture containing 10 µM of each α-factor and CSF in HPLC-grade water with 0.125% FA. The samples were analyzed immediately after sampling and subsequently over seven 3h intervals, in order to determine the remaining peptide concentrations. […]
The stability of the peptides also depends on their rate of enzymatic conversation through the action of proteases or peptidases (see review) secreted by cells during the cultivation. Therefore, the concentration of a peptide mixture (containing both α-factor and CSF) was monitored over a period of at least 18 h in the presence of fresh culture media or the supernatant of cultured yeast cells (harvested after 24 h). […]

WHWLQLKPQPMY [α-factor, signal peptide (pheromone) from S. cerevisiae, ordered from UMEX GmbH]
Concentration over 18 h in fresh culture media (fresh W0 pH = 5.6 or MV pH = 6.5, 1 µM peptide, glass vessels, 3 h intervals, LC-MS/MS normalized peak area, Fig. S5): remained nearly constant

TYADFL RAYQSW NTFVNP DRPNL [P-factor, pheromone from S. pombe, obtained from Davids Biotechnologie]
Peptide stability in EMM media (typical EMM media used for S. pombe, without and with 50 % ACN, LC-MS/MS, Fig. S7): demonstrated

Reference: paper PMC11876276, “LC–MS/MS quantification of bacterial and fungal signal peptides via direct injection: a case study of cross-kingdom communication” (Analytical and Bioanalytical Chemistry, 2025)
